Our source for the Ki values is BindingDB's records for patent US12522634 (Farsight Medical Technology (Shanghai), 2026).

Assay [1] concerns the target Peptidyl-prolyl cis-trans isomerase F, mitochondrial (Human, UniProt P30405). Put plainly: Cyclophilin Peptidyl-Prolyl Isomerase Functional Assay.
Description: (§1) Assay buffer was cooled to 10° C. (with stirring) in a precision glass cuvette and inhibitor was added from a DMSO stock solution to afford a final concentration of <1% DMSO. A blank spectrum was obtained and then enzyme and substrate were added and the change in absorbance measured over 5 min. A first order rate was fitted to the absorbance data to obtain a rate constant (first 10 to 15 s were eliminated due to mixing). The catalytic rate was calculated from the enzymatic rate minus the background rate. The enzymatic rate constant, determined in duplicate at each inhibitor concentration, was plotted against inhibitor concentration and a non-linear fit by SigmaPlot generated a Ki.
In assay [2] the target is Peptidyl-prolyl cis-trans isomerase A (Homo sapiens, UniProt P62937). The assay is described as above.
Description: as §1

Starred links: 1 amine or outer side, 2 acyl side, 3 side chain; linkers in the order of their positions; H or OH if unused. Non-standard residues stand in square brackets, D forms with d. Residues, ends and D or L forms follow the SMILES beside them. MeBmt = C/C=C/C[C@@H](C)[C@@H](O)[C@H](NC)C(=O)O; X1 = CN([C@H](OCCN1CCOCC1)C(=O)[*:2])[*:1]; X2 = CN(C)CCO[C@H](C(=O)[*:2])N(C)[*:1]; NMeL = CN[C@@H](CC(C)C)C(=O)O; NMeV = CN[C@H](C(=O)O)C(C)C; Nva = CCC[C@H](N)C(=O)O

Peptidyl-prolyl cis-trans isomerase F, mitochondrial, sequence (P30405 whole entry): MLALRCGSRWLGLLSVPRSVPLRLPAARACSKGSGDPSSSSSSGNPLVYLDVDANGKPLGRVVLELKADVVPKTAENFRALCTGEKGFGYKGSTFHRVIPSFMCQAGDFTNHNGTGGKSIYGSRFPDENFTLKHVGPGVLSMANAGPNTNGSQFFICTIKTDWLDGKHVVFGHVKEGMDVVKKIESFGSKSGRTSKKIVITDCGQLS
Peptidyl-prolyl cis-trans isomerase A, sequence (P62937 whole entry): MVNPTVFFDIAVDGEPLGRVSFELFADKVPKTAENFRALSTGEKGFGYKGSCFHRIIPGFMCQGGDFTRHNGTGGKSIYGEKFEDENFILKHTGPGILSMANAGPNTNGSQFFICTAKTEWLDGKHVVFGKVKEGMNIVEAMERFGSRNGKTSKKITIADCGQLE

Take `C/C=C/C[C@@H](C)[C@@H](O)[C@H]1C(=O)N[C@@H](C(C)C)C(=O)N(C)[C@H](OCCN(C)C)C(=O)N(C)[C@@H](CC(C)C)C(=O)N[C@@H](C(C)C)C(=O)N(C)[C@@H](CC(C)C)C(=O)N[C@@H](C)C(=O)N[C@H](C)C(=O)N(C)[C@@H](CC(C)C)C(=O)N(C)[C@@H](CC(C)C)C(=O)N(C)[C@@H](C(C)C)C(=O)N1C` [US12522634, Compound 3] (cyclo(A[dA][NMeL][NMeL][NMeV][MeBmt]V[X2][NMeL]V[NMeL])): in assay [1], the inhibitory constant (Ki) was found to be 5.1 nM.
`C/C=C/C[C@@H](C)[C@@H](O)[C@H]1C(=O)N[C@@H](C(C)C)C(=O)N(C)[C@H](OCCN2CCOCC2)C(=O)N(C)[C@@H](CC(C)C)C(=O)N[C@@H](C(C)C)C(=O)N(C)[C@@H](CC(C)C)C(=O)N[C@@H](C)C(=O)N[C@H](C)C(=O)N(C)[C@@H](CC(C)C)C(=O)N(C)[C@@H](CC(C)C)C(=O)N(C)[C@@H](C(C)C)C(=O)N1C` [US12522634, Compound 4] (cyclo(A[dA][NMeL][NMeL][NMeV][MeBmt]V[X1][NMeL]V[NMeL])): the results for the inhibitory constant (Ki) in assay [1] and in assay [2] were 4.1 nM and 2.3 nM, respectively.
For `C/C=C/C[C@@H](C)[C@@H](O)[C@H]1C(=O)N[C@@H](CCC)C(=O)N(C)[C@H](OCCN(C)C)C(=O)N(C)[C@@H](CC(C)C)C(=O)N[C@@H](C(C)C)C(=O)N(C)[C@@H](CC(C)C)C(=O)N[C@@H](C)C(=O)N[C@H](C)C(=O)N(C)[C@@H](CC(C)C)C(=O)N(C)[C@@H](CC(C)C)C(=O)N(C)[C@@H](C(C)C)C(=O)N1C` [US12522634, Compound 7] (cyclo(A[dA][NMeL][NMeL][NMeV][MeBmt][Nva][X2][NMeL]V[NMeL])), the Ki stood at 5.9 nM in assay [1] and 9.4 nM in assay [2].
In the case of `C/C=C/C[C@@H](C)[C@@H](O)[C@H]1C(=O)N[C@@H](CCC)C(=O)N(C)[C@H](OCCN2CCOCC2)C(=O)N(C)[C@@H](CC(C)C)C(=O)N[C@@H](C(C)C)C(=O)N(C)[C@@H](CC(C)C)C(=O)N[C@@H](C)C(=O)N[C@H](C)C(=O)N(C)[C@@H](CC(C)C)C(=O)N(C)[C@@H](CC(C)C)C(=O)N(C)[C@@H](C(C)C)C(=O)N1C` [US12522634, Compound 8] (cyclo(A[dA][NMeL][NMeL][NMeV][MeBmt][Nva][X1][NMeL]V[NMeL])), the Ki in assay [1] amounted to 35 nM; in assay [2] it was 39 nM.

By Ki is commonly meant the equilibrium dissociation constant of an inhibitor or competing ligand from its target.
